Data: patent US9358239B2, “NiSOD-like compound and its derivatives for suppressing abnormal protein aggregation, recovering cell viability, increasing mature neuron number and neurite outgrowth length and protecting dopaminergic cells by reducing oxidative stress or reactive oxygen species in brain tissues” (National Taiwan Normal University, priority 2012, dated 2016)

Tests used:
[1] = DPPH free radical scavenging assay; type: biochemical; conditions: absorbance at 517 nm
Excerpt: For DPPH (1,1-diphenyl-2-picryl hydrazyl) scavenging activity, the odd electron in the stable DPPH free radical gives a strong absorption maximum at 517 nm and is purple in color. The DPPH assay measured scavenging ability of the antioxidants towards the stable radical. The free radical DPPH was reduced when it reacted with antioxidants and results in decrease in absorbance at 517 nm. The degree of discoloration indicated the scavenging potential of the antioxidant compounds. Refer to FIG. 7.

[2] = test system: ATXN3/Q75 aggregation; test: ATXN3/Q75-GFP aggregation, high-content analysis in Flp-In 293 cells; type: cell-based, human; conditions: at 100 nM
Excerpt: For therapies toward the polyQ diseases, we aimed to screen compounds potentially inhibiting polyQ aggregation. As removal of the N-terminal ATXN3 was required for ATXN3 aggregation, GFP-tagged ATXN3/Q14-75 C-terminal fragment was cloned to establish Flp-In 293 cells with inducible ATXN3/Q14-75-GFP expression. Refer to FIG. 2. The GFP antibody detected 40˜57 kDa ATXN3/Q14-75-GFP proteins in doxycycline (+Dox) induced ATXN3 cells. Refer to FIGS. 3A and 3B. While the expressed ATXN3/Q14 was primarily diffused, the expressed ATXN3/Q75-GFP formed aggregates. For high content aggregation analysis, these ATXN3/Q75 cells were seeded onto 96-well plate, treated with tested compounds WCt003, WCt006 and WCt021 for 8 hours, and doxycycline was added to induce ATXN3/Q75-GFP expression for 6 days. Oxaliplatin (5 μM, Sigma) was added for aggregate accumulation through inhibition of DNA synthesis. Then cells were stained with Hochest 33342 (0.1 μg/ml, Sigma) and aggregation percentage was assessed by high-content analysis (HCA) system, with excitation/emission wavelengths at 482/536 (GFP).
Refer to FIG. 4. Cells expressing ATXN3/Q75 were examined with tested compounds WCt003, WCt006 and WCt021. […] WCt003 and WCt006 reduced the ATXN3/Q75 aggregation to 80% to 84% at 10 nM and 100 nM, and WCt021 reduced the ATXN3/Q75 aggregation to 80% to 84% at 1 nM to 100 nM. […]

[3] = SOD Assay Kit-WST, SOD(-like) activity; type: biochemical; conditions: WST-1 reduction
Excerpt: For SOD activity, SOD enzyme from human erythrocytes (Sigma, catalog number 59636) and HEK-293 cell lysate (5×10^6/ml) were used as comparison. The SOD Assay Kit-WST from Dojindo was used to determine SOD activity. The assay utilizes WST-1 [2-(4-iodophenyl)-3-(4-nitrophenyl)-5-(2,4)-disulfophenyl-2H-tetrazolium, monosodium salt] that produces a water-soluble formazan dye upon reduction with the superoxide anion. The rate of the reduction of WST-1 with O2^− was linearly related to the xanthine oxidase (XO) activity, and this reduction was inhibited by SOD. Therefore, the IC50 (50% inhibition activity of SOD or SOD-like materials) can be determined by the colorimetric method. Refer to FIG. 6A. […] Refer to FIG. 6B. […] Refer to FIG. 6C.

O=c1c(O)c(-c2ccc(O)cc2)oc2cc(O)cc(O)c12 [kaempferol, reference compound]
EC50 [1]: 26.7 µM

O=C(CCCCCCC(=O)Nc1ccccc1)NO [SAHA, suberoylanilide hydroxamic acid]
ATXN3/Q75 aggregation as compared to untreated cells [2]: 85%

SOD enzyme from human erythrocytes: SOD enzyme from human erythrocytes (Sigma), used as comparison
IC50 (SOD activity) [3]: 0.38 U/ml
